Experimental data taken from patent US12319655B2, “RAF kinase inhibitors and methods of use thereof” (Deciphera Pharmaceuticals, LLC, priority 2021, dated 2025).
Like-named read-outs stand apart in the source and are kept apart here.

Assays:
[1] = target: A-Raf kinase (SEQ. ID No: 1) (Homo sapiens (Human), UniProt P10398, Y301D/Y302D); assay: Biochemical Assay for A-Raf (1); conditions: Table J
Outline: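 A-Raf Y301D/Y302D at 5.55 nM phosphorylates 30.1 nM MEK with 1 mM ATP in pH 7.5 Tris buffer, 1% DMSO. Activity was read continuously as NADH oxidation at 340 nm in a pyruvate kinase/lactate dehydrogenase coupled system for 6 h at 30 °C. Rates from 4–5 h were converted to percent inhibition, and IC50 came from a four-parameter fit.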

[2] = target: B-Raf kinase (SEQ. ID NO: 2) (Homo sapiens (Human), UniProt P15056); assay: Biochemical Assay for B-Raf (1); conditions: Table J
B-Raf kinase (SEQ. ID NO: 2), sequence (P15056 416-766): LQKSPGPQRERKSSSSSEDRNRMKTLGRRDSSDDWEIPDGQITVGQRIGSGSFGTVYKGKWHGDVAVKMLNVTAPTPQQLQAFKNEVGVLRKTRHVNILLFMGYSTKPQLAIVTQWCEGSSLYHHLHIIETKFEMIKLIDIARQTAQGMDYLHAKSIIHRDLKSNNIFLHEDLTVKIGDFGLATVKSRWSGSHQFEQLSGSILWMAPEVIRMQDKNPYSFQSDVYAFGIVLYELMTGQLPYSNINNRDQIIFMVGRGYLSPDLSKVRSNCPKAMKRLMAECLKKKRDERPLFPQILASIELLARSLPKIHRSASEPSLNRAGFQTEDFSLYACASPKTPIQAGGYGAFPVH
Outline: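 Continuous PK/LDH-coupled NADH oxidation assay, A340 read for 6 h at 30° C., with 0.13 nM B-Raf, 30.1 nM MEK substrate and 1 mM ATP in Tris pH 7.5, MgCl2, DTT, detergents, 1% DMSO. Rate taken from 4–5 h window; percent inhibition vs no-compound and known-inhibitor controls; four-parameter fit gives IC50.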

[3] = tested on: Miapaca-2 cells; assay: MiaPaca-2 Cell Proliferation Assay (1); format: cell-based; conditions: Homo sapiens, MIA PaCa-2, single agent, read-out: MiaPaca2 (1) IC50
Outline: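 Resazurin was added after compound exposure and incubated 5-6 h, then fluorescence read at 540 nm excitation and 600 nm emission to give IC50.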

[4] = target: C-Raf kinase (SEQ. ID NO: 3) (Homo sapiens (Human), UniProt P04049, Y340D/Y341D); assay: Biochemical Assay for C-Raf (1); conditions: Table J
C-Raf kinase (SEQ. ID NO: 3), sequence (P04049 307-648 Y340D/Y341D): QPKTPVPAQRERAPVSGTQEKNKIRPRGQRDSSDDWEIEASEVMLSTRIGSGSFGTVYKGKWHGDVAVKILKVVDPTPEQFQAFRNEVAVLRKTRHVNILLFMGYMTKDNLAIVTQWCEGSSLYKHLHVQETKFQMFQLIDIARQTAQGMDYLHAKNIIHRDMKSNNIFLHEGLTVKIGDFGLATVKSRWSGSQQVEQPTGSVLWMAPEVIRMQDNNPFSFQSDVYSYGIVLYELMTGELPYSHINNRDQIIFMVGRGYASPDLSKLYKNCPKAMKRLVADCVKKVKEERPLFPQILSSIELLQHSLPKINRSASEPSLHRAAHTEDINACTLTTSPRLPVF
Outline: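 Coupled pyruvate kinase/LDH assay tracking NADH oxidation at 340 nm, with 0.43 nM C-Raf, 30.1 nM MEK and 1 mM ATP in pH 7.5 Tris buffer (15 mM MgCl2, 1% DMSO final). Read continuously for 6 h at 30 °C, rate taken from the 4–5 h window. IC50 from four-parameter fit of percent inhibition.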

[5] = assay version (1), read-out: ARAF (1) IC50
[6] = assay version (1), read-out: BRAF (1) IC50
[7] = assay version (1), read-out: CRAF (1) IC50
[8] = biochemical assay (1), read-out: ARAF (1)
[9] = biochemical assay (1), read-out: BRAF (1)
[10] = biochemical assay (1), read-out: CRAF (1)

A-Raf kinase (SEQ. ID No: 1), sequence (P10398 other isoform, or with tags, fused parts or gaps Y301D (already in the parent)/Y302D (already in the parent)): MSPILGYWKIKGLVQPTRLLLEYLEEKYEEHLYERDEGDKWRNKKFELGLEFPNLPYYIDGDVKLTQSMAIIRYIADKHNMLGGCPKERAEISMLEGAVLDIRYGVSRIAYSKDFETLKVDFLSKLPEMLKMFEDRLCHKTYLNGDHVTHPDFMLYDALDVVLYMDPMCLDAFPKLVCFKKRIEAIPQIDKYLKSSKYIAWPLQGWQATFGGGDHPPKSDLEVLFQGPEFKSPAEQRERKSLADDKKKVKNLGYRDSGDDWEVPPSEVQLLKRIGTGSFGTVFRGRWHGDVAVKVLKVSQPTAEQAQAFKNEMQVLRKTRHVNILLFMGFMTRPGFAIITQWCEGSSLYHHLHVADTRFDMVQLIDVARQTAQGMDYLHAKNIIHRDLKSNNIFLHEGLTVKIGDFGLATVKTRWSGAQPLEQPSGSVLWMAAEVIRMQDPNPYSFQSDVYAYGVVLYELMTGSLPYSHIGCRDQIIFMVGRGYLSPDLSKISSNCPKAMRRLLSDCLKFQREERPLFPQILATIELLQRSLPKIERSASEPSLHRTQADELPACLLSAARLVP

Row | Compound | IC50 [1, 5] [µM] | IC50 [2, 6] [µM] | IC50 [3] [µM] | IC50 [4, 7] [µM] | IC50 [1, 8] [µM] | IC50 [2, 9] [µM] | IC50 [4, 10] [µM]
1 | Cc1ccc(NC(=O)c2ccnc(C(C)(C)C#N)c2)cc1-c1ccnc(-c2ccnc(N)c2)c1 [Example 56] | 1 to 10 | ≤ 0.1 | 1 to 10 | ≤ 0.1 |  |  | 
2 | Cc1ncc(NC(=O)c2ccnc(C(F)(F)F)c2)cc1-c1cccc(-c2ccnc(NC(=O)C3CC3)c2)c1 [Example 70] | 0.5 to 1 | ≤ 0.1 | 1 to 10 | ≤ 0.1 |  |  | 
3 | Cc1ccc(NC(=O)c2ccnc(C(F)(F)F)c2)cc1-c1ccnc(-c2ccnc(NC(=O)CC#N)c2)c1 [Example 39, N-(3-(2′-(2-cyanoacetamido)-[2,4′-bipyridin]-4-yl)-4-methylphenyl)-2-(trifluoromethyl)isonicotinamide] | 1 to 10 | ≤ 0.1 | 1 to 10 | ≤ 0.1 |  |  | 
4 | Cc1ccc(NC(=O)c2ccnc(C(F)(F)F)c2)cc1-c1ccnc(-c2ccnc(NC=O)c2)c1 [Example 46] | 1 to 10 | ≤ 0.1 | 1 to 10 | ≤ 0.1 |  |  | 
5 | CNC(=O)c1cc(-c2cccc(-c3cc(NC(=O)c4ccnc(C(F)(F)F)c4)cnc3C)c2)ccn1 [Example 73] | 1 to 10 | 0.1 to 0.5 | 1 to 10 | ≤ 0.1 |  |  | 
6 | CNC(=O)c1cc(-c2cc(-c3cc(NC(=O)c4ccnc(C(C)(C)C#N)c4)ccc3C)ccn2)ccn1 [Example 50] | 1 to 10 | ≤ 0.1 | 1 to 10 | ≤ 0.1 |  |  | 
7 | CNC(=O)c1cc(-c2cncc(-c3cc(NC(=O)c4ccnc(C(F)(F)F)c4)ccc3C)n2)ccn1 [Example 47] | 1 to 10 | ≤ 0.1 | 1 to 10 | ≤ 0.1 |  |  | 
8 | CC(=O)Nc1cc(-c2cccc(-c3cc(NC(=O)c4ccnc(C(C)(C)C#N)c4)ccc3C)c2)ncn1 [Example 79] | 1 to 10 | ≤ 0.1 | 1 to 10 | ≤ 0.1 |  |  | 

The remaining lines, values ahead:

Row | IC50 [1, 5] [µM] | IC50 [2, 6] [µM] | IC50 [3] [µM] | IC50 [4, 7] [µM] | IC50 [1, 8] [µM] | IC50 [2, 9] [µM] | IC50 [4, 10] [µM] | Compound
9 | 1 to 10 | 0.5 to 1 | 1 to 10 | 0.1 to 0.5 |  |  |  | CNC(=O)c1cc(-c2cc(-c3cc(C(=O)Nc4ccnc(C(C)(C)C#N)c4)ccc3C)ccn2)ccn1 [Example 74]
10 | 1 to 10 | ≤ 0.1 | 1 to 10 | ≤ 0.1 |  |  |  | Cc1ccc(NC(=O)c2ccnc(C(C)(C)C#N)c2)cc1-c1ccnc(-c2ccnc(N)c2)n1 [Example 82]
11 | 1 to 10 | ≤ 0.1 | 1 to 10 | ≤ 0.1 |  |  |  | Cc1cc(F)c(NC(=O)c2ccnc(C(C)(C)C#N)c2)cc1-c1ccnc(-c2ccnc(NC(=O)C3CC3)c2)c1 [Example 76]
12 | 1 to 10 | ≤ 0.1 | 1 to 10 | ≤ 0.1 |  |  |  | Cc1cc(-c2cc(NC(=O)c3ccnc(C(F)(F)F)c3)ccc2F)cc(-c2ccnc(NC(=O)C3CC3)c2)n1 [Example 72]
13 | 1 to 10 | ≤ 0.1 | 1 to 10 | ≤ 0.1 |  |  |  | Cc1ccc(NC(=O)c2ccnc(C(C)(C)C#N)c2)cc1-c1cncc(-c2ccnc3c2CC(=O)N3)n1 [Example 43]
14 | 1 to 10 | ≤ 0.1 | 1 to 10 | ≤ 0.1 |  |  |  | CC(=O)Nc1cc(-c2cncc(-c3cc(C(=O)Nc4cnn(C(C)C)c4)ccc3C)n2)ccn1 [Example 87]
15 | 1 to 10 | 0.1 to 0.5 | 1 to 10 | ≤ 0.1 |  |  |  | CNC(=O)c1cc(-c2nccc(-c3cc(NC(=O)c4ccnc(C(C)(C)C#N)c4)ccc3C)n2)ccn1 [Example 78]
16 | 1 to 10 | ≤ 0.1 | 1 to 10 | ≤ 0.1 |  |  |  | CNC(=O)c1cc(-c2cc(-c3cc(NC(=O)c4ccnc(C)c4)ccc3C)ccn2)ccn1 [Example 40]
17 |  |  | 0.1 to 0.5 |  | 0.1 to 0.5 | ≤ 0.1 | ≤ 0.1 | Cc1ccc(NC(=O)c2ccnc(C(C)(C)F)c2)cc1-c1cncc(-c2cc(NC(=O)C3CC3)ncn2)c1 [Example 394]
18 |  |  | 0.5 to 1 |  | 1 to 10 | ≤ 0.1 | ≤ 0.1 | Cc1cc(F)c(NC(=O)c2ccnc(C3CC3)c2)cc1-c1cncc(-c2cc(NC(=O)C3CC3)ncn2)c1 [Example 398]
